Test results taken from ChEMBL document CHEMBL1151424, “In vitro efficacy of new antifolates against trimethoprim-resistant Bacillus anthracis” (Antimicrob Agents Chemother, 2007).
pIC50: −log10 of the molar value. ≈ marks a conversion by molar mass, not a printed value.

Assays:
[1] = tested on: Bacillus anthracis; test: Antibacterial activity against Bacillus anthracis Sterne after 16 hrs by modified alamar blue microdilution broth assay; type: functional
[2] = tested on: Bacillus anthracis; test: Inhibition of histidine-tagged Bacillus anthracis Sterne recombinant DHFR expressed in Escherichia coli BL21 Star (DE3)pLysS up to 3 mins; conditions: BL21, 0.05 h
[3] = target: T1, Dihydrofolate reductase (Homo sapiens, UniProt P00374); test: Inhibition of human recombinant DHFR
T1 sequence (P00374 whole entry): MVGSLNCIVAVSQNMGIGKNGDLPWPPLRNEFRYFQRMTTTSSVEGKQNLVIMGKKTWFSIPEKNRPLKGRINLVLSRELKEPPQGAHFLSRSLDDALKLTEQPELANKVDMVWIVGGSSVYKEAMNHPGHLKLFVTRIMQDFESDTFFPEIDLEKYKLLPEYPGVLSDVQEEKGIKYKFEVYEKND

[4] = tested on: Bacillus anthracis; test: Antibacterial activity against Bacillus anthracis Ames (NR-411) after 16 hrs by modified alamar blue microdilution broth assay; type: functional; conditions: Ames NR-411, 16 h
[5] = Selectivity ratio of IC50 for human recombinant DHFR to IC50 for histidine-tagged Bacillus anthracis Sterne recombinant DHFR
[6] = tested on: Bacillus cereus; test: Antibacterial activity against Bacillus cereus up to 10 hrs by growth inhibition assay; type: functional
[7] = Inhibition of Bacillus cereus recombinant DHFR expressed in Escherichia coli BL21(DE3) assessed as enzyme-dependent NADPH consumption
[8] = target: T2, Dihydrofolate reductase (Rattus norvegicus, UniProt Q920D2); test: Inhibition of rat DHFR
T2 sequence (Q920D2 whole entry): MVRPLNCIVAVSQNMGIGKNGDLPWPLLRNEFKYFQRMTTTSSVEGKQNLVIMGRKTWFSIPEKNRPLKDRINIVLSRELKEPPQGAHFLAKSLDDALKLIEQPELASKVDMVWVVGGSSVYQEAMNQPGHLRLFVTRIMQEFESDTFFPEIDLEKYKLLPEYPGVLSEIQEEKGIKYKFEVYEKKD

**Q.** With `COc1cc(Cc2cnc(N)nc2N)cc(/C=C/C(=O)N2N=Cc3ccccc3C2c2ccc(O)cc2)c1O` (configuration not stated) as the compound, how does the MIC [1] read?
**A.** > 128 µg/mL

**Q.** Which MIC [1] does the source give for `COc1cc(Cc2cnc(N)nc2N)cc(/C=C/C(=O)N2N=Cc3ccccc3C2c2ccc(CO)cc2)c1O` (configuration not stated) here?
**A.** ≤ 128 µg/mL

**Q.** What about the pIC50 [2] of the same compound?
**A.** 7.16

**Q.** What about the pIC50 [3] of the same compound?
**A.** < 4.62

**Q.** With `COc1cc(Cc2cnc(N)nc2N)cc(/C=C/C(=O)N2N=Cc3ccccc3C2C2CCCC2)c1OC` (configuration not stated) as the compound, how does the MIC [1] read?
**A.** ≤ 25.6 µg/mL

**Q.** What about the MIC [4] of the same compound?
**A.** ≤ 12.8 µg/mL

**Q.** And the pIC50 [2]?
**A.** 6.70

**Q.** And the pIC50 [3]?
**A.** < 4.66

**Q.** And the Ratio IC50 [5]?
**A.** > 110

**Q.** What about the MIC50 [6] of the same compound?
**A.** 2.6 µg/mL (≈ 5.07 µM)

**Q.** And the pIC50 [7]?
**A.** 6.57

**Q.** What about the pIC50 [8] of the same compound?
**A.** 4.60

**Q.** Which results are given for `COc1cc(Cc2cnc(N)nc2N)cc(/C=C/C(=O)N2N=Cc3ccccc3C2c2ccccc2CN(C)C)c1OC` (configuration not stated)?
**A.** MIC [1]: ≤ 128 µg/mL; pIC50 [2]: 6.40; pIC50 [3]: < 4.38

**Q.** For `COc1cc(Cc2cnc(N)nc2N)cc(/C=C/C(=O)N2N=Cc3ccccc3C2c2ccccc2)c1OC` (configuration not stated), which MIC [1] is on record?
**A.** ≤ 25.6 µg/mL

**Q.** And the MIC [4]?
**A.** > 51.2 µg/mL

**Q.** What about the pIC50 [2] of the same compound?
**A.** 7.34

**Q.** And the pIC50 [3]?
**A.** < 4.80

**Q.** What about the Ratio IC50 [5] of the same compound?
**A.** > 348

**Q.** And the MIC50 [6]?
**A.** 2.6 µg/mL (≈ 4.99 µM)

**Q.** And the pIC50 [7]?
**A.** 6.57

**Q.** And the pIC50 [8]?
**A.** 4.60

**Q.** What does the source list for `COc1cc(Cc2cnc(N)nc2N)cc(/C=C/C(=O)N2N=Cc3ccccc3C2C2CCCCC2)c1OC` (configuration not stated)?
**A.** MIC [1]: ≤ 12.8 µg/mL; MIC [4]: ≤ 12.8 µg/mL; pIC50 [2]: 6.59; pIC50 [3]: < 4.72; MIC50 [6]: 2.6 µg/mL (≈ 4.94 µM); pIC50 [7]: 6.57; pIC50 [8]: 4.60

**Q.** Which results are given for `CCC1c2ccccc2C=NN1C(=O)/C=C/c1cc(Cc2cnc(N)nc2N)cc(OC)c1OC` (configuration not stated)?
**A.** MIC [1]: ≤ 32 µg/mL; MIC [4]: ≤ 25.6 µg/mL; pIC50 [2]: 7.02; pIC50 [3]: < 4.57; Ratio IC50 [5]: > 281; MIC50 [6]: 2.6 µg/mL (≈ 5.5 µM); pIC50 [7]: 6.57; pIC50 [8]: 4.60

**Q.** For `COc1cc(Cc2cnc(N)nc2N)cc(/C=C/C(=O)N2N=Cc3ccccc3C2c2ccc(O)cc2)c1C(OC)OC` (configuration not stated), which MIC [1] is on record?
**A.** > 128 µg/mL

**Q.** Which MIC [1] does the source give for `CCCCC1c2ccccc2C=NN1C(=O)/C=C/c1cc(Cc2cnc(N)nc2N)cc(OC)c1OC` (configuration not stated) here?
**A.** ≤ 12.8 µg/mL

**Q.** And the MIC [4]?
**A.** ≤ 12.8 µg/mL

**Q.** And the pIC50 [2]?
**A.** 6.77

**Q.** What about the pIC50 [3] of the same compound?
**A.** < 4.70

**Q.** What about the Ratio IC50 [5] of the same compound?
**A.** > 118

**Q.** What about the MIC50 [6] of the same compound?
**A.** 2.6 µg/mL (≈ 5.19 µM)

**Q.** What about the pIC50 [7] of the same compound?
**A.** 6.57

**Q.** And the pIC50 [8]?
**A.** 4.60

**Q.** With `COc1cc(Cc2cnc(N)nc2N)cc(/C=C/C(=O)N2N=Cc3ccccc3C2CCCO)c1OC` (configuration not stated) as the compound, how does the MIC [1] read?
**A.** ≤ 64 µg/mL

**Q.** What about the MIC [4] of the same compound?
**A.** > 102 µg/mL

**Q.** What about the pIC50 [2] of the same compound?
**A.** 6.92

**Q.** What about the pIC50 [3] of the same compound?
**A.** < 4.60

**Q.** What about the MIC50 [6] of the same compound?
**A.** 2.6 µg/mL (≈ 5.17 µM)

**Q.** What about the pIC50 [7] of the same compound?
**A.** 6.57

**Q.** And the pIC50 [8]?
**A.** 4.60

**Q.** Which MIC [1] does the source give for `COc1ncc(C2c3ccccc3C=NN2C(=O)/C=C/c2cc(Cc3cnc(N)nc3N)cc(OC)c2OC)c(OC)n1` (configuration not stated) here?
**A.** ≤ 128 µg/mL

**Q.** What about the pIC50 [2] of the same compound?
**A.** 6.22

**Q.** And the pIC50 [3]?
**A.** < 4.66

**Q.** With `COc1cc(Cc2cnc(N)nc2N)cc(/C=C/C(=O)N2N=Cc3ccccc3C2c2ccc(O)cc2)c1OC` (configuration not stated) as the compound, how does the MIC [1] read?
**A.** > 128 µg/mL

**Q.** With `COc1cc(Cc2cnc(N)nc2N)cc(/C=C/C(=O)N2N=Cc3ccccc3C2c2ccc(CO)cc2)c1C(OC)OC` (configuration not stated) as the compound, how does the MIC [1] read?
**A.** > 128 µg/mL

**Q.** With `COc1cc(Cc2cnc(N)nc2N)cc(/C=C/C(=O)N2N=Cc3ccccc3C2c2ccccc2CO)c1OC` (configuration not stated) as the compound, how does the MIC [1] read?
**A.** > 128 µg/mL

**Q.** With `COc1cc(Cc2cnc(N)nc2N)cc(/C=C/C(=O)N2N=Cc3ccccc3C2c2ccc(C)cc2)c1OC` (configuration not stated) as the compound, how does the MIC [1] read?
**A.** ≤ 64 µg/mL

**Q.** What about the MIC [4] of the same compound?
**A.** ≤ 51.2 µg/mL

**Q.** And the pIC50 [2]?
**A.** 6.82

**Q.** And the pIC50 [3]?
**A.** < 4.72

**Q.** What about the Ratio IC50 [5] of the same compound?
**A.** > 127

**Q.** And the MIC50 [6]?
**A.** 2.6 µg/mL (≈ 4.86 µM)

**Q.** What about the pIC50 [7] of the same compound?
**A.** 6.57

**Q.** What about the pIC50 [8] of the same compound?
**A.** 4.60

**Q.** With `COc1cc(Cc2cnc(N)nc2N)cc(/C=C/C(=O)N2N=Cc3ccccc3C2c2ccc(CO)cc2)c1OC` (configuration not stated) as the compound, how does the MIC [1] read?
**A.** ≤ 128 µg/mL

**Q.** And the pIC50 [2]?
**A.** 7.01

**Q.** What about the pIC50 [3] of the same compound?
**A.** < 4.64

**Q.** With `COc1cc(Cc2cnc(N)nc2N)cc(CCC(=O)N2N=Cc3ccccc3C2C)c1OC` (configuration not stated) as the compound, how does the MIC [1] read?
**A.** ≤ 64 µg/mL

**Q.** And the MIC [4]?
**A.** ≤ 64 µg/mL

**Q.** What about the pIC50 [2] of the same compound?
**A.** 7.04

**Q.** What about the pIC50 [3] of the same compound?
**A.** < 4.55

**Q.** What about the pIC50 [7] of the same compound?
**A.** 4.43

**Q.** Which MIC [1] does the source give for `COC(=O)C(C)(C)C1c2ccccc2C=NN1C(=O)/C=C/c1cc(Cc2cnc(N)nc2N)cc(OC)c1OC` (configuration not stated) here?
**A.** ≤ 128 µg/mL

**Q.** What about the pIC50 [2] of the same compound?
**A.** 6.52

**Q.** And the pIC50 [3]?
**A.** 3.09

**Q.** And the MIC50 [6]?
**A.** 2.6 µg/mL (≈ 4.77 µM)

**Q.** And the pIC50 [7]?
**A.** 6.57

**Q.** And the pIC50 [8]?
**A.** 4.60

**Q.** Which results are given for `COc1cc(Cc2cnc(N)nc2N)cc(/C=C/C(=O)N2N=Cc3ccccc3C2c2ccccc2)c1OCCN1CCOCC1` (configuration not stated)?
**A.** MIC [1]: ≤ 32 µg/mL; MIC [4]: ≤ 25.6 µg/mL; pIC50 [2]: 6.77; pIC50 [3]: < 4.68

**Q.** Which MIC [1] does the source give for `COc1cc(Cc2cnc(N)nc2N)cc(OC)c1OC` [TRIMETHOPRIM] here?
**A.** > 2050 µg/mL

**Q.** With `COc1cc(Cc2cnc(N)nc2N)cc(/C=C/C(=O)N2Cc3ccccc3C=N2)c1OC` as the compound, how does the MIC [1] read?
**A.** > 128 µg/mL

**Q.** What about the pIC50 [7] of the same compound?
**A.** 4.43

**Q.** With `CCCC1c2ccccc2C=NN1C(=O)/C=C/c1cc(Cc2cnc(N)nc2N)cc(O)c1OC` (configuration not stated) as the compound, how does the MIC [1] read?
**A.** ≤ 12.8 µg/mL

**Q.** What about the MIC [4] of the same compound?
**A.** ≤ 16 µg/mL

**Q.** What about the pIC50 [2] of the same compound?
**A.** 7.27

**Q.** What about the pIC50 [3] of the same compound?
**A.** 3.96

**Q.** And the Ratio IC50 [5]?
**A.** 2040

**Q.** What about the MIC50 [6] of the same compound?
**A.** 2.6 µg/mL (≈ 5.5 µM)

**Q.** And the pIC50 [7]?
**A.** 6.57

**Q.** And the pIC50 [8]?
**A.** 4.60
